From patent publication US6548553B2, “Styryl sulfone anticancer agents” (Temple University-of the Commonwealth System of Higher …, priority 1997, dated 2003)
Blank lines part the entries; values can stand above or below the compound they belong to.

How the values were obtained:
LnCaP and MCF-7 cells = assay: Trypan blue exclusion viability assay, Tables 2-4; format: cell-based; conditions: 5.0 μM compound, 48 hours; for viability at 5 µM: read-out: % viable LnCaP and MCF-7 cells
Method: (§1) The effect of the styryl sulfones on the growth of normal and tumor cells of breast and prostate was examine utilizing four cell lines, NIH3T3, MCF-7, BT-20 and LnCap. NIH/3T3 cells represent normal fibroblasts while LnCap is an androgen-dependent prostate tumor cell line. MCF-7 is an estrogen-responsive breast tumor cell line, while BT-20 is an estrogen-unresponsive breast tumor cell line. MCF-7 and BT-20 were grown in Dulbecco's modified Eagle's medium (DMEM) containing 10% fetal bovine serum supplemented with penicillin and streptomycin. LnCaP were cultured in RPMI with 10% fetal bovine serum containing penicillin and streptomycin. NIH3T3 cells were grown in DMEM containing 10% calf serum supplemented with penicillin and streptomycin. All cell cultures were maintained at 37° C. in a humidified atmosphere of 5% CO2.
Cells were treated with test compound at 2.5 μM or 5.0 μM concentration and cell viability was determined after 48 hours by the Trypan blue exclusion method. The compounds identified in Tables 2, 3 and 4 inhibited cell growth and induced cell death, to varying degrees. The tables list the percent viable LnCap and MCF-7 cells treated with 5.0 μM compound.

[1] = Trypan blue exclusion viability assay, normal fibroblasts; format: cell-based; parameters: viability at 48 h: dose or concentration left out as unconfirmed; conditions: mouse, NIH3T3 cells (normal fibroblasts); for viability at 48 h: 48 hours incubation, read-out: viable NIH3T3 cells
Method: as §1
(§2) The compounds identified in Tables 2, 3 and 4 inhibited cell growth and induced cell death, to varying degrees. The tables list the percent viable LnCap and MCF-7 cells treated with 5.0 μM compound.
(§3) The percentage of living cells was determined by Trypan blue exclusion. The control cells were treated with DMSO to determine the effect of solvent on cells. […] Under these conditions, only 2-3% of NIH3T3 cells were non-viable at both the concentrations. […] After 48 hours incubation, 60-75% of the LnCaP, BT-20 and MCF-7 cells were dead at […] FRI-20 concentration, whereas more than 90% of NIH3T3 cells were viable (FIG. 2A).

[2] = tested on: LnCaP, BT-20 and MCF-7 cells; assay: Trypan blue exclusion viability/proliferation assay (dose and time course); format: cell-based; conditions: 2.5 mM (FIG. 1A) and 5.0 mM (FIG. 1B), 48 hours of treatment
BT20 = assay: GI50 growth inhibition, trypan blue cell count; format: cell-based, human; conditions: breast, estrogen receptor negative, 96 hours after addition
Method: (§4) The human carcinoma cell lines listed in Table 5 below were purchased from ATCC and grown in an appropriate growth medium containing 10% fetal bovine serum (FBS) and antibiotics. The cells were plated at a cell density of 1.0×10^5 cells per […] in 6-well dishes. The cells were treated with various concentrations of (E)-fluorostyryl-4-bromobenzylsulfone 24 hours after plating in a total volume of 1 ml of medium using dimethylsulfoxide (DMSO) as a solvent for the compound. Control cells were treated with DMSO alone. The total number of viable cells was determined 96 hours after the addition of the compound by counting the cells in each well using a hemacytometer after trypan blue staining (viable cells exclude the stain). The counts were done in duplicate and the average was graphed in FIG. 8 as a percentage of the non-treated control group.

DLD-1 = assay: GI50 growth inhibition, trypan blue cell count; format: cell-based, human; conditions: cob-rectal, 96 hours after addition
Method: as §4

DU145 = assay: GI50 growth inhibition, trypan blue cell count; format: cell-based, human; conditions: prostate, androgen receptor negative, 96 hours after addition
Method: as §4

H157 = assay: GI50 growth inhibition, trypan blue cell count; format: cell-based, human; conditions: lung, non-small cell, 96 hours after addition
Method: as §4

MIA-PaCa-2 = assay: GI50 growth inhibition, trypan blue cell count; format: cell-based, human; conditions: pancreatic, 96 hours after addition
Method: as §4

U87 = assay: GI50 growth inhibition, trypan blue cell count; format: cell-based, human; conditions: glioblastoma, 96 hours after addition
Method: as §4

SK-MEL-28 = assay: GI50 growth inhibition, trypan blue cell count; format: cell-based; conditions: Homo sapiens, melanoma, 96 hours after addition
Method: as §4

[3] = tested on: LnCaP, BT-20 and MCF-7 cells; assay: Trypan blue exclusion viability/proliferation assay (dose and time course); format: cell-based
Method: as §1, §2
as §3, with “NIH3T3, MCF-7, BT-20 and LnCaP cells were treated with FRI-20 dissolved in DMSO to concentrations of 250 nM, 500 nM, 1 μM, 2.5 μM and 5 μM and examined for their proliferation and viability after 48 hours (FIG. 2A). The percentage” for “The percentage”
NIH/3T3, MCF-7, BT-20 and LnCap were treated with FRI-20 at 2.5 μM and the number of viable cells was determined at 12, 24, 48 and 72 hours by Trypan blue exclusion.

DU145 cells = assay: Comparison with cisplatin, Trypan blue viability after 72 hours; format: cell-based; conditions: DU145, 72 hours, Trypan blue exclusion
Method: (§5) The killing effect of FR-20 on androgen-sensitive (LnCaP) and androgen insensitive (DU145) prostate tumor cells was compared to the effect of cisplatin (cis-diamminedichloroplatinum II), a widely used anti-prostate cancer agent. The cells were grown as in Example 26. FRI-20 or cisplatin was dissolved in DMSO and added to the cells at various concentrations. Viability was determined after 72 hours by the Trypan blue exclusion method. The concentration of FRI-20 required to completely kill LnCaP and DU145 cells was 2.5 μM and 5.0 μM, respectively. Under identical conditions, complete killing of LnCaP and DU145 cells by cisplatin required 25 μM and 15 μM concentrations, respectively.

LnCaP cells = assay: as above; format: cell-based; conditions: LnCaP, 72 hours, Trypan blue exclusion
Method: as §5

Structure (SMILES): O=S(=O)(/C=C/c1ccccc1)c1ccccc1 [Example 1, E-styryl Phenyl Sulfone]
- viability at 5 µM (LnCaP and MCF-7 cells): 89%

Structure (SMILES): O=S(=O)(/C=C/c1ccc(Cl)cc1)c1ccccc1 [Example 2, E-4-chlorostyryl Phenyl Sulfone]
- viability at 5 µM (LnCaP and MCF-7 cells): 90%

Structure (SMILES): O=S(=O)(/C=C/c1ccc(Cl)cc1Cl)c1ccccc1 [Example 3, E-2,4-dichlorostyryl Phenyl Sulfone]
- viability at 5 µM (LnCaP and MCF-7 cells): 88%

Structure (SMILES): O=S(=O)(/C=C/c1ccc(Br)cc1)c1ccccc1 [Example 4, E-4-bromostyryl Phenyl Sulfone]
- viability at 5 µM (LnCaP and MCF-7 cells): 68%

Structure (SMILES): O=S(=O)(/C=C/c1ccc(Cl)cc1)c1ccc(Cl)cc1 [Example 5, E-4-chlorostyryl 4-chlorophenyl Sulfone]
- viability at 5 µM (LnCaP and MCF-7 cells): 64%

Structure (SMILES): Cc1ccc(/C=C/S(=O)(=O)c2ccc(Cl)cc2)cc1 [Example 6, E-4-methylstyryl 4-chlorophenyl Sulfone]
- viability at 5 µM (LnCaP and MCF-7 cells): 92%

Structure (SMILES): COc1ccc(/C=C/S(=O)(=O)c2ccc(Cl)cc2)cc1 [Example 7, E-4-methoxystyryl 4-chlorophenyl Sulfone]
- viability at 5 µM (LnCaP and MCF-7 cells): 90%

Structure (SMILES): O=S(=O)(/C=C/c1ccc(Br)cc1)c1ccc(Cl)cc1 [Example 8, E-4-bromostyryl 4-chlorophenyl Sulfone]
- viability at 5 µM (LnCaP and MCF-7 cells): 69%

Structure (SMILES): O=S(=O)(/C=C/c1ccccc1Cl)Cc1ccccc1 [Example 9, E-2-chlorostyryl Benzyl Sulfone]
- viability at 5 µM (LnCaP and MCF-7 cells): 94%

Structure (SMILES): O=S(=O)(/C=C/c1ccc(Cl)cc1)Cc1ccccc1 [Example 10, E-4-chlorostyryl Benzyl Sulfone]
- viability at 5 µM (LnCaP and MCF-7 cells): 87%

Structure (SMILES): O=S(=O)(/C=C/c1ccc(Cl)cc1)Cc1ccc(Cl)cc1 [Example 12, E-4-chlorostyryl 4-chlorobenzyl Sulfone]
- viability at 5 µM (LnCaP and MCF-7 cells): 49%
- viability at 48 h, 5 µM [1]: > 80%
- viability at 48 h [1]: > 80%
- inhibition of growth and induction of death of LnCaP, BT-20 and MCF-7 cells [2]: substantially inhibit the growth and induce the death

Structure (SMILES): O=S(=O)(/C=C/c1ccc(F)cc1)Cc1ccc(F)cc1 [Example 13, E-4-fluorostyryl 4-fluorobenzyl Sulfone]
- viability at 5 µM (LnCaP and MCF-7 cells): 43%

Structure (SMILES): O=S(=O)(/C=C/c1ccc(F)cc1F)Cc1ccc(F)cc1 [Example 14, E-2,4-difluorostyryl 4-fluorobenzyl Sulfone]
- viability at 5 µM (LnCaP and MCF-7 cells): 56%
- viability at 48 h, 5 µM [1]: > 80%
- viability at 48 h [1]: > 80%
- inhibition of growth and induction of death of LnCaP, BT-20 and MCF-7 cells [2]: substantially inhibit the growth and induce the death

Structure (SMILES): O=S(=O)(/C=C/c1ccc(F)cc1)Cc1ccc(Br)cc1 [Example 15, E-4-fluorostyryl 4-bromobenzyl Sulfone]
- viability at 5 µM (LnCaP and MCF-7 cells): 7%
- viability at 48 h, 5 µM [1]: > 80%
- viability at 48 h [1]: > 80%
- GI50 (BT20; Homo sapiens, BT-20): 1 to 2 µM
- GI50 (DLD-1; Homo sapiens, DLD-1): < 1 µM
- GI50 (DU145; Homo sapiens, DU-145): 2.5 µM
- GI50 (H157; Homo sapiens, NCI-H157): < 1 µM
- GI50 (MIA-PaCa-2; Homo sapiens, MIA PaCa-2): < 1 µM
- GI50 (U87; Homo sapiens, U-87 MG): 1 to 2 µM
- GI50 (SK-MEL-28): 1 to 2 µM
- inhibition of growth and induction of death of LnCaP, BT-20 and MCF-7 cells [2]: substantially inhibit the growth and induce the death

Structure (SMILES): O=S(=O)(/C=C/c1ccc(Br)cc1)Cc1ccc(Br)cc1 [Example 16, E-4-bromostyryl 4-bromobenzyl Sulfone]
- viability at 5 µM (LnCaP and MCF-7 cells): 51%

Structure (SMILES): O=S(=O)(/C=C/c1ccc(Br)cc1)Cc1ccc(F)cc1 [Example 17, E-4-bromostyryl 4-fluorobenzyl Sulfone]
- viability at 5 µM (LnCaP and MCF-7 cells): 42%
- viability at 48 h, 5 µM [1]: > 80%
- viability at 48 h [1]: > 80%
- inhibition of growth and induction of death of LnCaP, BT-20 and MCF-7 cells [2]: substantially inhibit the growth and induce the death

Structure (SMILES): O=S(=O)(/C=C/c1ccc(Cl)cc1)Cc1ccc(Br)cc1 [Example 18, E-4-chlorostyryl 4-bromobenzyl Sulfone]
- viability at 5 µM (LnCaP and MCF-7 cells): 7%
- activity (growth inhibition and cell death) [3]: highly active

Structure (SMILES): O=S(=O)(/C=C/c1ccc(Br)cc1)Cc1ccc(Cl)cc1 [Example 19, E-4-bromostyryl 4-chlorobenzyl Sulfone]
- viability at 5 µM (LnCaP and MCF-7 cells): 20%
- activity (growth inhibition and cell death) [3]: highly active

Structure (SMILES): O=S(=O)(/C=C\c1ccccc1)/C=C/c1ccc(F)cc1 [Example 20, (Z)-styryl-(E)-4-fluorostyryl Sulfone]
- viability at 5 µM (LnCaP and MCF-7 cells): 76%

Structure (SMILES): O=S(=O)(/C=C\c1ccccc1)/C=C/c1ccc(Br)cc1 [Example 21, (Z)-styryl-(E)-4-bromostyryl Sulfone]
- viability at 5 µM (LnCaP and MCF-7 cells): 68%

Structure (SMILES): O=S(=O)(/C=C\c1ccccc1)/C=C/c1ccc(Cl)cc1 [Example 22, (Z)-styryl-(E)-4-chlorostyryl Sulfone]
- viability at 5 µM (LnCaP and MCF-7 cells): 72%

Structure (SMILES): O=C(C(=Cc1ccc(F)cc1)S(=O)(=O)c1ccc(F)cc1)c1ccccc1 [Example 23, 2-[(4-fluorophenyl)sulfonyl]-1-phenyl-3-(4-fluorophenyl)-2-propen-1-one]
- viability at 5 µM (LnCaP and MCF-7 cells): 76%

Structure (SMILES): O=C(C(=Cc1ccc(F)cc1)S(=O)(=O)c1ccccc1Cl)c1ccccc1 [Example 24]
- % viable LnCaP and MCF-7 cells (LnCaP and MCF-7 cells): 64%

Structure (SMILES): O=C(C(=Cc1ccc(Br)cc1)S(=O)(=O)c1ccccc1Cl)c1ccccc1 [Example 25, 2-[(2-chlorophenyl)sulfonyl]-1-phenyl-3-(4-bromophenyl)-2-propen-1-one]
- viability at 5 µM (LnCaP and MCF-7 cells): 72%

Structure (SMILES): O=C(C(=Cc1ccc(Br)cc1)S(=O)(=O)c1ccc(Cl)cc1)c1ccccc1 [Example 26, 2-[(4-chlorophenyl)sulfonyl]-1-phenyl-3-(4-bromophenyl)-2-propen-1-one]
- viability at 5 µM (LnCaP and MCF-7 cells): 58%

Structure (SMILES): O=C(C(=Cc1ccc(Br)cc1)S(=O)(=O)c1ccccc1[N+](=O)[O-])c1ccccc1 [Example 27, 2-[(2-nitrophenyl)sulfonyl]-1-phenyl-3-(4-bromophenyl)-2-propen-1-one]
- viability at 5 µM (LnCaP and MCF-7 cells): 74%

- GI50 (BT20): 0.9 µM
- GI50 (DLD-1): 0.8 µM
- GI50 (DU145): 2 µM
- GI50 (H157): 1.5 µM
- GI50 (MIA-PaCa-2): 1 µM
- GI50 (U87): 1.8 µM
Structure (SMILES): O=S(=O)(/C=C/c1ccc(F)cc1Cl)Cc1ccc(Cl)cc1 [Example 36, E-(2)-chloro-4-fluorostyryl-4-chlorobenzylsulfone]

Structure (SMILES): N.N.[Cl][Pt][Cl] [cisplatin, cis-diamminedichloroplatinum II, reference compound]
- concentration required to completely kill cells (DU145 cells): 15 µM
- concentration required to completely kill cells (LnCaP cells): 25 µM
